pKd: −log10 of the molar value. Read-outs that look alike come from different tables or passages of the source.
Assays:
[1] = test system: TZM-bl cell line; format: cell-based
In short: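 TZM-bl cells (HIV-1 LTR-luciferase) infected with HIV-1NL4-3 with compound at 1 μM; luciferase read 48 h later. Percent inhibition normalized to DMSO wild-type infection (0%) and Nef-defective HIV-1 infection (100% of Nef-dependent effect). Viability in uninfected TZM-bl cells by Cell Titer Blue.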

[2] = molecular target: HIV-1 NefNL4-3 (Human immunodeficiency virus type 1 group M subtype B, UniProt P03406, A33V/T15A/T51N/V11I); assay: Surface plasmon resonance binding to recombinant full-length Nef (NL4-3); conditions: for T, minutes (residence time): 2-step induced fit, T = 1/koff2; for RU30/RUNef (extent of binding): response units at 30 μM relative to Nef immobilized on the SPR chip
[3] = test system: HIV-1NL4-3; assay: HIV-1 infectivity assay in TZM-bl reporter cell line (LTR-luciferase, 48 h); format: cell-based; conditions: for inhibition at 1 µM: Human immunodeficiency virus 1, TZM-bl
In short: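 Compounds were tested at 1 μM in TZM-bl cells infected with HIV-1NL4-3. Infectivity was read as luciferase signal 48 h after infection and expressed as percent inhibition, normalized between DMSO-treated wild-type infection (0%) and DMSO-treated Nef-defective HIV-1 infection (100% of the Nef-dependent effect).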

[4] = 48 h, Table 1, TZM-bl cells, 1 μM, 48 h, 100% = Nef-defective HIV-1, read-out: HIV-1 Infectivity % Inhibition Norm. to Δ-Nef @ 1 μM
[5] = KD, M, Table 4, SPR fit 2-step induced fit, KD = koff/kon × koff2/(koff2 + kon2)
[6] = Nef NL4-3 Binding, SPR 2-state fitting KD, Table 1, 2-step induced-fit model
[7] = read-out: Nef NL4-3 Binding, SPR 1:1 or 2-site fitting KD2, Table 1, 2-site fit, second component
[8] = 1.0 μM, TZM-bl reporter cell line, Table 4, read-out: % Infectivity Inhibition

| Structure (SMILES) | Percent Viability @ 1 μM (TZM-bl cells) ([1]; human, 1 μM) [%] | inhibition at 1 µM [3, 4] [%] | % Cell Viability ([1]; human, 1 μM) [%] | pKd [2] | pKd [2, 5] | pKd [2, 6] | pKd [2, 7] | RU30/RUNef (extent of binding) [2] [E- 03] | inhibition at 1 µM [3, 8] [%] | further results |
| --- | --- | --- | --- | --- | --- | --- | --- | --- | --- | --- |
| CN(C)C(=O)N1CCC(c2nn(-c3nc4ccccc4[nH]3)c(O)c2CCC2CCOCC2)CC1 [Compound I-739, 4-[1-(1H-1,3-benzodiazol-2-yl)-5-hydroxy-4-[2-(oxan-4-yl)ethyl]-1H-pyrazol-3-yl]-N,N-dimethylpiperidine-1-carboxamide] | 100.0 | -7 | – | – | – | – | – | – | – | Nef NL4-3 Binding, SPR 1:1 or 2-site fitting KD1 ([2]; Table 1, 1:1 Langmuir fit where the KD2 cell says '1 to 1 fitting', else 2-site fit): No Interaction |
| COC(=O)N1CCC(c2nn(-c3nc4ccccc4[nH]3)c(O)c2CCc2ccc(F)cc2)CC1 [Compound I-740, methyl 4-[1-(1H-1,3-benzodiazol-2-yl)-4-[2-(4-fluorophenyl)ethyl]-5-hydroxy-1H-pyrazol-3-yl]piperidine-1-carboxylate] | 89.8 | 39.1 | 89.8 | 6.80 | 6.26 | 6.26 | 5.47 | 7.81 | 39.1 | T, minutes (residence time) ([2]; Table 4): 1.26E + 01 minutes |
| O=S(=O)(c1cccnc1)N1CCC(c2nn(-c3nc4ccccc4[nH]3)c(O)c2CCc2ccc(F)cc2)CC1 [Compound I-742, 1-(1H-1,3-benzodiazol-2-yl)-4-[2-(4-fluorophenyl)ethyl]-3-[1-(pyridine-3-sulfonyl)piperidin-4-yl]-1H-pyrazol-5-ol] | 77.3 | 125 | 77.3 | – | 11.84 | 11.84 | 4.25 | 2.76 | 100 | – |
| CC(=O)N1CCC(c2nn(-c3nc4ccccc4[nH]3)c(O)c2Cc2ccc(F)c(F)c2)CC1 [Compound I-744, 1-{4-[1-(1H-1,3-benzodiazol-2-yl)-4-[(3,4-difluorophenyl)methyl]-5-hydroxy-1H-pyrazol-3-yl]piperidin-1-yl}ethan-1-one] | 98.2 | 51.2 | 98.2 | 7.63 | 5.71 | 5.71 | 5.14 | 4.92 | 51.2 | T, minutes (residence time) ([2]; Table 4): 5.61E + 00 minutes |
| CC(C)(O)C(=O)N1CCC(c2nn(-c3nc4ccccc4[nH]3)c(O)c2CCc2ccc(F)cc2)CC1 [Compound I-745, 1-{4-[1-(1H-1,3-benzodiazol-2-yl)-4-[2-(4-fluorophenyl)ethyl]-5-hydroxy-1H-pyrazol-3-yl]piperidin-1-yl}-2-hydroxy-2-methylpropan-1-one] | 100.0 | 23.8 | – | 5.00 | – | – | – | – | – | – |
| O=S(=O)(C1CCCCC1)N1CCC(c2nn(-c3nc4ccccc4[nH]3)c(O)c2CCc2ccc(F)cc2)CC1 [Compound I-747, 1-(1H-1,3-benzodiazo1-2-y1)-3-[1-(cyclohexanesulfonyl)piperidin-4-yl]-4-[2-(4-fluorophenyl)ethyl]-1H-pyrazol-5-ol] | – | – | – | – | – | – | – | – | – | Percent Viability @ 1 μM (TZM-bl cells) [1]: 86.9%; Kd ([2]; KD, two-step induced-fit model, Reichert SPR, Table 3, read-out: Reichert SPR Nef NL43 (M) two-step fitting): 0.000257 M; pKd ([2]; Table 1, 1:1 Langmuir fit where the KD2 cell says '1 to 1 fitting', else 2-site fit, read-out: Nef NL4-3 Binding, SPR 1:1 or 2-site fitting KD1): 7.05; pKd ([2]; Table 1, 2-site fit, second component, read-out: Nef NL4-3 Binding, SPR 1:1 or 2-site fitting KD2): 5.81; pKd ([2]; Table 1, 2-step induced-fit model, read-out: Nef NL4-3 Binding, SPR 2-state fitting KD): 3.59; HIV Infectivity % Control @ 1 μM ([3]; 1 μM, TZM-bl reporter cells, % of control): 30.9%; HIV-1 Infectivity % Inhibition Norm. to Δ-Nef @ 1 μM ([3]; 1 μM, TZM-bl, normalized: DMSO wild-type HIV-1 = 0%, Nef-defective HIV-1 = 100%): 179.3%; HIV-1 Infectivity % Inhibition Norm. to Δ-Nef @ 1 μM ([3]; Table 1, TZM-bl cells, 1 μM, 48 h, 100% = Nef-defective HIV-1): 179.3% |
| O=S(=O)(C1CC1)N1CCC(c2nn(-c3nc4ccccc4[nH]3)c(O)c2CCc2ccc(F)cc2)CC1 [Compound I-748, 1-(1H-1,3-benzodiazol-2-yl)-3-[1-(cyclopropanesulfonyl)piperidin-4-yl]-4-[2-(4-fluorophenyl)ethyl]-1H-pyrazol-5-ol] | 94.8 | 22.3 | – | 5.38 | – | – | – | – | – | – |
| Nc1ccc(S(=O)(=O)N2CCC(c3nn(-c4nc5ccccc5[nH]4)c(O)c3CCc3ccc(F)cc3)CC2)cc1 [Compound I-749, 3-[1-(4-aminobenzenesulfonyl)piperidin-4-yl]-1-(1H-1,3-benzodiazol-2-yl)-4-[2-(4-fluorophenyl)ethyl]-1H-pyrazol-5-ol] | 78.7 | 64.1 | – | 8.90 | – | 6.40 | 6.12 | – | – | – |

Reference: US20220380341A1, “INHIBITORS OF HIV-1 NEF FOR THE TREATMENT OF HIV DISEASE” (priority 2018, published 2022)
